{"source": "patent US12478617B2", "about": "“Lipidated peptide inhibitors of interleukin-23 receptor” (JANSSEN BIOTECH, INC., priority 2021, dated 2025)", "key": {"[1]": {"biological_target": "IL-23R-expressing DB cells (Homo sapiens, UniProt Q5VWK5)", "experiment": "DB Cells IL23R pSTAT3 Cell Assay", "format": "cell-based", "conditions": "pSTAT3 (HTRF) in IL-23R-expressing DB cells, 0.5 nM IL-23, 30 minutes; Table 6 'IL-23 Cell Data'", "method": "IL-23 is believed to play a central role in supporting and maintaining Th17 differentiation in vivo. This process is thought to be mediated primarily through the Signal Transducer and Activator of Transcription 3 (STAT3), with phosphorylation of STAT3 (to yield pSTAT3) leading to upregulation of RORC and pro-inflammatory IL-17. […] DB cells (ATCC #CRL-2289), cultured in RPMI-1640 medium (Thermo Scientific #11875093) supplemented with 10% FBS, were added at 5 X 10E5 cells/well and incubated for 30 minutes at 37° C. in a 5% CO2 humidified incubator. Changes in phospho-STAT3 levels in the cell lysates were detected using the Cisbio HTRF pSTAT3 (Tyr705) Cellular Assay Kit (Cisbio #62AT3PEH), according to manufacturer's Two Plate Assay protocol. Where not shown or it is marked as “0”, data was not yet determined."}, "[2]": {"conditions": "from Ac-Pen-Asn-Thr-7MeTrp-Lys(Ac)-Pen-AEF-2Nal-THP-Lys(Ac)-Asn-3Pya-Sar-PEG2-PEG2-eLys(C16OH)-OH; disulfide bond; 20-membered ring; I2/AcOH; ACN/H2O; […]"}, "IL-23R": {"biological_target": "T1, IL-23R (Homo sapiens, UniProt Q5VWK5)", "T1 construct": "HEK293 cells containing IL-23R, IL-12RP31 and a firefly luciferase reporter gene driven by a STAT-inducible promoter (Promega); host or cells: HEK293", "T1 sequence (Q5VWK5 24-629)": "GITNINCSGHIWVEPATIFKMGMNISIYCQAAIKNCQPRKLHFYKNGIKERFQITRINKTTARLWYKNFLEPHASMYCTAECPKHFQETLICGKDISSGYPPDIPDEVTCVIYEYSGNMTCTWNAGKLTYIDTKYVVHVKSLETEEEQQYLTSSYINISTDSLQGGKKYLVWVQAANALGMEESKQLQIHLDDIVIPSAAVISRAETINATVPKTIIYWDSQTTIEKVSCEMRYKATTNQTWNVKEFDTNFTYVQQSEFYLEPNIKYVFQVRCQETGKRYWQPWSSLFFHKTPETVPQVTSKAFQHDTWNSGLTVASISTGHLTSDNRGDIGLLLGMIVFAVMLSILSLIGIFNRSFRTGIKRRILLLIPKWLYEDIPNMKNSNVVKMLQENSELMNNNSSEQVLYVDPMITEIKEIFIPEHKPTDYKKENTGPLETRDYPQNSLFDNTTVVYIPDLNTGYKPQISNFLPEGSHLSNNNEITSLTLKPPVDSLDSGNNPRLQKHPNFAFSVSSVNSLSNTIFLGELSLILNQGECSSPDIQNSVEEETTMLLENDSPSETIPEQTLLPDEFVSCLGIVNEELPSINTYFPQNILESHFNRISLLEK", "experiment": "IL23R Reporter Assay", "format": "cell-based", "how_it_was_run": "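Reporter cells read out IL-23-driven STAT3 activation; compounds were serially diluted in DMSO. After 5 h at 37 °C, 5% CO2, cells were brought to 20 °C and luminescence was measured with BioGlo reagent.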"}, "[3]": {"biological_target": "T2, peripheral blood mononuclear cells (PBMCs) (Homo sapiens, UniProt Q5VWK5)", "T2 sequence (Q5VWK5 24-629)": "T1 sequence (Q5VWK5 24-629)", "experiment": "PBMC pSTAT3 assay", "format": "cell-based", "conditions": "PBMCs from healthy donors, anti-CD3/IL-1β cultured; peptide 30 min, then IL-23 5 ng/mL for 30 min; phosphorylated STAT3 (Meso Scale Discovery)", "text": "IL-23 binding to IL-23 receptors results in the activation of the Signal Transducer and Activator of Transcription 3 (STAT3) by phosphorylation and downstream signaling events. Accordingly. the ability of the inhibitors described herein to block IL-23 action can be assessed by monitoring the status of STAT3 activation in response to IL-23. This may be accomplished in reporter cell assays or in intact cells such as peripheral blood mononuclear cells (PBMCs)."}}, "note": "Starred links: 1 amine or outer side, 2 acyl side, 3 side chain; linkers in the order of their positions; H or OH if unused. Positions of bridges follow the written chain, without caps; N, C: chain ends. Non-standard residues stand in square brackets, D forms with d. Residues, ends and D or L forms follow the SMILES beside them. Groups on a side chain read outwards from the residue. *: point of attachment. PEG12 = NCCOCCOCCOCCOCCOCCOCCOCCOCCOCCOCCOCCOCCC(=O)O; X1 = O=C(O)CCCCCCCCCCCCCCC(=O)N[C@@H](CCCCN*)C(=O)O; Trp(7-Me) = Cc1cccc2c(C[C@H](N)C(=O)O)c[nH]c12; γGlu = O=C(O)[C@H](CCC(=O)[*:2])N[*:1]; 2Nal = N[C@@H](Cc1ccc2ccccc2c1)C(=O)O; AEF = NCCOc1ccc(C[C@H](N)C(=O)O)cc1; Palmitoyl = CCCCCCCCCCCCCCCC(=O)*; 3Pal = N[C@@H](Cc1cccnc1)C(=O)O; αMeL = CC(C)C[C@](C)(N)C(=O)O; Pen = CC(C)(S)[C@H](N)C(=O)O; αMeK = C[C@](N)(CCCCN)C(=O)O; X3 = COCCOCCOCCOCCC(=O)*; Thp = NC1(C(=O)O)CCOCC1; AEEA = NCCOCCOCC(=O)O; Sar = CNCC(=O)O", "data": [{"smiles": "CCCCCCCCCCCCCCCC(=O)N[C@@H](CCC(=O)NCCOCCOCCOCCOCCOCCOCCOCCOCCOCCOCCOCCOCCC(=O)NCCCC[C@](C)(NC(=O)[C@H](Cc1ccc2ccccc2c1)NC(=O)[C@H](Cc1ccc(OC)cc1)NC(=O)[C@H]1NC(=O)[C@H](CCCCNC(C)=O)NC(=O)[C@H](Cc2c[nH]c3c(C)cccc23)NC(=O)[C@H]([C@@H](C)O)NC(=O)[C@H](C)NC(=O)[C@@H](NC(C)=O)C(C)(C)SSC1(C)C)C(=O)N[C@@H](CCCCNC(C)=O)C(=O)N[C@@H](CC(N)=O)C(=O)N[C@@H](Cc1cccnc1)C(=O)N(C)CC(N)=O)C(=O)O", "note": "[Example 226, Ac-[Pen]-A-T-[Trp(7-Me)]-[Lys(Ac)]-[Pen]-[Phe(4-OMe)]-[2Nal]-[aMeLys(PEG12_IsoGlu_Palm)]-[Lys(Ac)]-N-[3Pal]-[Sarc]-NH2] (Ac-[Pen]AT[Trp(7-Me)]K(Ac)[Pen]Y(Me)[2Nal][αMeK]([PEG12-γGlu-Palmitoyl])K(Ac)N[3Pal][Sar]-NH2; disulfide 1-6)", "values": [{"measurement": "IC50", "setting": "[1]", "result": 633, "unit": "pM"}]}, {"smiles": "COCCOCCOCCOCCC(=O)N[C@@H]1C(=O)N[C@@H](CC(N)=O)C(=O)N[C@@H]([C@@H](C)O)C(=O)N[C@@H](Cc2c[nH]c3c(C)cccc23)C(=O)N[C@@H](CCCCNC(C)=O)C(=O)N[C@H](C(=O)N[C@@H](Cc2ccccc2)C(=O)N[C@@H](Cc2ccc3ccccc3c2)C(=O)N[C@@](C)(CC(C)C)C(=O)N[C@@H](CC(C)C)C(=O)N[C@@H](CC(N)=O)C(=O)N[C@@H](Cc2cccnc2)C(=O)N(C)CC(N)=O)C(C)(C)SSC1(C)C", "note": "[Example 211, [PEG4_OMe]-[Pen]-N-T-[Trp(7-Me)]-[Lys(Ac)]-[Pen]-F-[2Nal]-[aMeLeu]-L-N-[3Pal]-[Sarc]-NH2] (X3-[Pen]NT[Trp(7-Me)]K(Ac)[Pen]F[2Nal][αMeL]LN[3Pal][Sar]-NH2; disulfide 1-6)", "values": [{"measurement": "IC50", "setting": "[1]", "result": 62, "unit": "pM"}]}, {"smiles": "CC(=O)NCCCC[C@@H]1NC(=O)[C@H](Cc2c[nH]c3c(C)cccc23)NC(=O)[C@H]([C@@H](C)O)NC(=O)[C@H](CC(N)=O)NC(=O)[C@@H](NC(C)=O)C(C)(C)SSC(C)(C)[C@@H](C(=O)N[C@@H](Cc2ccc(OCCN)cc2)C(=O)N[C@@H](Cc2ccc3ccccc3c2)C(=O)NC2(C(=O)N[C@@H](CCCCNC(C)=O)C(=O)N[C@@H](CC(N)=O)C(=O)N[C@@H](Cc3cccnc3)C(=O)N(C)CC(=O)NCCOCCOCC(=O)NCCOCCOCC(=O)NCCCC[C@H](NC(=O)CCCCCCCCCCCCCCC(=O)O)C(=O)O)CCOCC2)NC1=O", "note": "[Example 8, MeCO-Pen*-N-T-7MeW-K(Ac)-Pen*-AEF-2Nal-THP—K(Ac)-N— 3Pva-Sar-PEG2-PEG2-eK(C160H)-COOH (*Pen-Pen form disulfide bond)] (Ac-[Pen]NT[Trp(7-Me)]K(Ac)[Pen][AEF][2Nal][Thp]K(Ac)N[3Pal][Sar][AEEA][AEEA]-X1; disulfide 1-6)", "values": [{"measurement": "ring closure, yield after HPLC", "setting": "[2]", "result": 7, "unit": "%"}, {"measurement": "IC50", "setting": "IL-23R", "result": 89, "unit": "pM"}, {"measurement": "IC50", "setting": "[3]", "result": 210, "unit": "pM"}]}]}
